Measurements: patent US20090156639A1, “COMPOSITIONS AND METHODS OF TREATMENT USING L-TYPE CALCIUM CHANNEL BLOCKERS AND CHOL[…]” (priority 2003, published 2009)
Where a name gives a salt, the structure may show the parent alone.

System: young adult male Sprague-Dawley rats
Assay: Novel Object Recognition Memory test (hippocampus-dependent nonspatial memory task)
Type: in vivo, rat
Settings: for % Exploration of the novel object: prior to training, test 24 hours after training, n=6; for approximate optimum dosage in the Novel Object Recognition Memory test: from dose response data (FIGS. 1, 2, 4)
Experimental: The general procedure for compound evaluation in Novel Object Recognition Memory (Hippocampus-Dependent Nonspatial Memory Task) is as follows: • 1. The animals are transported in their home cages from the vivarium to a dimly lit (5-6 lux) training room and acclimated for approximately 45 minutes. • 2. The animals are than individually placed in the training/testing environment (an opaque plastic chamber, 61 cm×42 cm×37 cm with bedding on the floor) for 5 minutes of habituation. Thereafter, the animals are returned to their home cage.
They remained in the testing room for approximately 15 minutes after the last animal is habituated before being returned to their colony room.
For the memory test, the objects to be discriminated are a goblet (11 cm in height, 6.5 cm in diameter) and a conical candlestick holder (11 cm in height, 6 cm in diameter) made of green, nontransparent glass. There are multiple copies of each object used for training and testing. Object pairs are randomly assigned within and between conditions. For training, two identical objects are placed 8 cm from the sides of the two short walls of the chamber. • 4. The day after initial habituation, the animals are returned to the testing room and acclimated as described in Step 1. Drug and/or vehicle is then administered according to experimental design (i.p.: 263/8-gauge needle; or p.o.: 18-gauge needle) at an interval ranging from 24 hours prior to 24 hours post-training. The training procedure is begun by placing the animal, nose facing the wall, into the empty chamber at a position in the center of a long wall. After 1 minute of re-habituation, the animal is removed from the chamber and placed in a holding cage (45 cm×26 cm×20 cm) with bedding for a period of 10 seconds. During this delay, the training objects are placed in the chamber. The animal is then returned to the chamber for a 15-minute period of exploration. The animal's movements are observed via cameral located over the chamber and are recorded on videotape. After the training session, the animal is returned to its home cage. The objects are cleaned with an 85% EtOH solution. The animals remain in the testing room for approximately 15 minutes after the last animal is trained before being returned to their colony room. • 5. Following a delay interval (1 hour to several weeks, but usually 24 hours), the animals are again returned to the testing room and acclimated as described in Step 1. After this, individual animals are re-habituated to the empty chamber for 1 minute as was described in Step 4. For the test, two new objects are placed in the chamber: one is identical to the objects used during training, while the other is novel. The position of the novel object is randomized for each animal. The animals are allowed to actively explore until they accumulate a total of 60 seconds of exploration. During the test period, the amount of time spent exploring either the novel or the familiar object is recorded using R. E. Clark's V.P.C. program, which also signals when 60 seconds of exploration has been accumulated. The animal's movements are observed via a camera located over the chamber and are recorded on videotape. Any animal that fails to explore either object or to reach the set criterion within 15 minutes is excluded from analysis. After the test, the animals are returned to their home cage, and then to the colony room. The objects are cleaned with an 85% EtOH solution. • 6.

Compound | % Exploration of the novel object (donepezil 0.05 mg/kg i.p. alone (suboptimal dose) plus vehicle) | approximate optimum dosage in the Novel Object Recognition Memory test | % Exploration of the novel object (Compound A 1.00 mg/kg i.p. alone (suboptimal dose) plus vehicle)
COc1cc2c(cc1OC)C(=O)C(CC1CCN(Cc3ccccc3)CC1)C2 (racemic) [donepezil, (+/−) 2,3-dihydro-5,6-dimethoxy-2-[[1-(phenylmethyl)-4-piperidinyl]methyl]-IH-indene-1-one hydrochloride] | 50% | ~0.5 mg/kg | –
COCCOC(=O)C1=C(C)NC(C)=C(C(=O)OC(C)C)C1c1cccc(C#N)c1Cl (single isomer, unassigned; (+)) [Compound A, (+) isopropyl 2-methoxyethyl 4-(2-chloro-3-cyano-phenyl)-1,4-dihydro-2,6-dimethylpyridine-3,5-dicarboxylate] | – | ~10 mg/kg | 50%
CC12CC3CC(C)(C1)CC(N)(C3)C2 [memantine] | – | ~1.0 mg/kg | –
